System: Male Zucker Diabetic Fatty rats
Test: In vivo evaluation in Zucker Diabetic Fatty rats
Parameters: species or system rat
Settings: oral gavage b.i.d., 7 days, percent reduction from vehicle control at day 7 relative to normalization (plasma glucose 140 mg/dL)
Description: Male Zucker Diabetic Fatty rats were lightly anesthetized with isofluorane gas and bleed by tail vein to obtain postprandial baseline concentrations for plasma glucose, serum lipids and insulin. Animals were baseline matched by plasma glucose and randomized into vehicle or treatment groups with compound administration by oral gavage, b.i.d., beginning at 8.5 weeks of age. Selected compounds were administered as a suspension in 0.5% methylcellulose for 7 consecutive days. Changes in body weight and food consumption were monitored from representative animals from each group, over a 48 hr period. After 7 days of treatment animals were anesthetized, blood samples obtained and analyzed for plasma glucose and lactate, serum triglyceride, total and HDL cholesterol, non-esterified free fatty acids and insulin concentration. Livers were weighed and corrected for body weight. Values in Table 1 for % Glucose reduction represent a summary of the percent reduction from vehicle control animals at day 7 relative to normalization defined in this model as plasma glucose levels of 140 mg/dL.

Compound	% Glucose Reduction
C/C(=C/C(=O)c1ccccc1)N[C@@H](Cc1ccc(OCCc2nc(-c3ccccc3)oc2C)cc1)C(=O)O [Example 1, (2S)-2{[(Z)-1-methyl-3-oxo-3-phenyl-1-propenyl]amino}-3-{4-[2-(5-methyl-2-phenyl-1,3-oxazol-4-yl)ethoxy]phenyl}propanoic acid]	39%
C/C(=C/C(=O)c1ccccc1)N[C@@H](Cc1ccc(OCCc2nc(-c3ccc(C(F)(F)F)cc3)oc2C)cc1)C(=O)O [Example 7, (2S)-2-{[(Z)-1-methyl-3-oxo-3-phenyl-1-propenyl]amino}-3-[4-(2-{5-methyl-2-[4-(trifluoromethyl)phenyl]-1,3-oxazol-4-yl}ethoxy)phenyl]propanoic acid]	34%
C/C(=C/C(=O)c1ccc(F)c(F)c1F)N[C@@H](Cc1ccc(OCCc2nc(-c3ccccc3)oc2C)cc1)C(=O)O [Example 12, (2S)-2-{[(Z)-1-methyl-3-oxo-3-(2,3,4-trifluorophenyl)-1-propenyl]amino}-3-{4-[2-(5-methyl-2-phenyl-1,3-oxazol-4-yl)ethoxy]phenyl}propanoic acid]	61%
C/C(=C/C(=O)c1cc(F)c(F)cc1F)N[C@@H](Cc1ccc(OCCc2nc(-c3ccccc3)oc2C)cc1)C(=O)O [Example 16, (2S)-2-{[(Z)-1-methyl-3-oxo-3-(2,4,5-trifluorophenyl)-1-propenyl]amino}-3-{4-[2-(5-methyl-2-phenyl-1,3-oxazol-4-yl)ethoxy]phenyl}propanoic acid]	59%
CC/C(=C/C(=O)c1ccccc1)N[C@@H](Cc1ccc(OCCc2nc(-c3ccccc3)oc2C)cc1)C(=O)O [Example 20, (2S)-2-{[(Z)-1-ethyl-3-oxo-3-phenyl-1-propenyl]amino}-3-{4-[2-(5-methyl-2-phenyl-1,3-oxazol-4-yl)ethoxy]phenyl}propanoic acid]	50%
Cc1sc(-c2ccc(F)cc2)nc1CCOc1ccc(C[C@H](N/C(=C\C(=O)c2ccccc2)C(F)(F)F)C(=O)O)cc1 [Example 21, (2S)-3-(4-{2-[2-(4-fluorophenyl)-5-methyl-1,3-thiazol-4-yl]ethoxy}phenyl)-2-{[(Z)-3-oxo-3-phenyl-1-(trifluoromethyl)-1-propenyl]amino}propanoic acid]	82%
CC/C(=C/C(=O)c1ccc(C(F)(F)F)cc1)N[C@@H](Cc1ccc(OCCc2nc(-c3ccc(F)cc3)sc2C)cc1)C(=O)O [Example 22, (2S)-2-({(Z)-1-ethyl-3-oxo-3-[4-(trifluoromethyl)phenyl]-1propenyl}amino)-3-(4-{2-[2-(4-fluorophenyl)-5-methyl-1,3-thiazol-4-yl]ethoxy}phenyl)propanoic acid]	49%
CCCC/C(=C/C(=O)c1ccccc1)N[C@@H](Cc1ccc(OCCc2nc(-c3ccccc3)oc2C)cc1)C(=O)O [Example 23, (2S)-2-{[(Z)-1-butyl-3-oxo-3-phenyl-1-propenyl]amino}-3-{4-[2-(5-methyl-2-phenyl-1,3-oxazol-4-yl)ethoxy]phenyl}propanoic acid]	86%
C/C(=C/C(=O)c1ccc(Cl)cc1)N[C@@H](Cc1ccc(OCCc2nc(-c3ccccc3)oc2C)cc1)C(=O)O [Example 24, (2S)-2-{[(Z)-3-(4-chlorophenyl)-1-methyl-3-oxo-1-propenyl]amino}-3-{4-[2-(5-methyl-2-phenyl-1,3-oxazol-4-yl)ethoxy]phenyl}propanoic acid]	45%
CCC/C(=C/C(=O)c1ccccc1)N[C@@H](Cc1ccc(OCCc2nc(-c3ccccc3)oc2C)cc1)C(=O)O [Example 40]	79%
Cc1oc(-c2ccccc2)nc1CCOc1ccc(C[C@H](N/C(=C\C(=O)c2ccccc2)C(F)(F)F)C(=O)O)cc1 [Example 48, (2S)-3-{4-[2-(5-methyl-2-phenyl-1,3-oxazol-4-yl)ethoxy]phenyl}-2{[(Z)-3-oxo-3-phenyl-1-(trifluoromethyl)-1-propenyl]amino}propanoic acid]	81%

Source: US6498174B1, “Substituted oxazoles and thiazoles derivatives as hPPARγ and hPPARα activators” (SmithKline Beecham Corporation, priority 1998, dated 2002)
